Measurements reported in patent publication US20230172204A1 (BASF SE, priority 2020, published 2023).

Key:
[1] = test system: Phakopsora pachyrhizi (F129L); assay: Protective control of soybean rust on soybeans (PHAKPA P6); assay type: in vivo; settings: for % PHAKPA (F129L) Disease level P6 at 4 ppm: protective P6, 4 ppm; for % PHAKPA (F129L) Disease level P6 at 4 ppm / % PHAKPA (F129L) Disease level P6 at 16 ppm: soybean rust F129L; for % PHAKPA (F129L) Disease level P6 at 16 ppm: protective P6, 16 ppm; for PHAKPA (F129L) Disease level (%) P6 at 4 ppm / PHAKPA (F129L) Disease level (%) P6 at 16 ppm: P6 protective, % diseased leaf area
[2] = test system: Phakopsora pachyrhizi (F129L); assay: Protective control of soybean rust on soybeans (PHAKPA P2); assay type: in vivo; settings: for % PHAKPA (F129L) Disease level P2 at 4 ppm: protective P2, 4 ppm; for % PHAKPA (F129L) Disease level P2 at 4 ppm / % PHAKPA (F129L) Disease level P2 at 16 ppm: soybean rust F129L; for % PHAKPA (F129L) Disease level P2 at 16 ppm: protective P2, 16 ppm; for PHAKPA (F129L) Disease level (%) P2 at 4 ppm / PHAKPA (F129L) Disease level (%) P2 at 16 ppm: P2 protective, % diseased leaf area

Row | Structure (SMILES) | % PHAKPA (F129L) Disease level P6 at 4 ppm [1] | % PHAKPA (F129L) Disease level P6 at 16 ppm [1] | % PHAKPA (F129L) Disease level P2 at 4 ppm [2] | % PHAKPA (F129L) Disease level P2 at 16 ppm [2] | PHAKPA (F129L) Disease level (%) P6 at 4 ppm [1] | PHAKPA (F129L) Disease level (%) P2 at 4 ppm [2] | PHAKPA (F129L) Disease level (%) P6 at 16 ppm [1] | PHAKPA (F129L) Disease level (%) P2 at 16 ppm [2]
1 | CO/N=C(/C(=O)OC)c1cccc(C)c1CO/N=C(\C)c1cc(C(F)(F)F)ccc1F [compound 198] | 0% | 0% | 4% | 1% |  |  |  | 
2 | CNC(=O)/C(=N/OC)c1cccc(C)c1CO/N=C(\C)c1c(F)ccc(F)c1C(F)(F)F [compound 359] | 100% | 43% | 100% | 37% |  |  |  | 
3 | CC/C(=N\OCc1c(C)cccc1/C(=N\OC)C(=O)NC)c1cccc(C(F)(F)F)c1 [Ex. 188] | 11% | 0% | 1% | 0% | 30% | 2% |  | 
4 | CNC(=O)/C(=N/OC)c1cccc(C)c1CO/N=C(\C)c1c(F)ccc(C(F)(F)F)c1NC [compound 233] | 87% | 27% | 100% | 57% |  |  |  | 
5 | CO/N=C(/C(=O)OC)c1cccc(C)c1CO/N=C(\C)c1cc(F)cc(C(F)(F)F)c1 [compound 51] | 15% | 0% | 28% | 2% |  |  |  | 
6 | CNC(=O)/C(=N/OC)c1ccccc1CO/N=C(/c1ccccc1)C(F)F [reference compound] |  |  |  |  | 90% | 43% |  | 
7 | C#Cc1cccc(/C(C)=N/OCc2c(C)cccc2/C(=N\OC)C(=O)OC)c1 [compound 53] | 100% | 47% | 63% | 17% |  |  |  | 
8 | CNC(=O)/C(=N/OC)c1cccc(C)c1CO/N=C(\C)c1cccc(OC)c1 [compound 79] | 44% | 4% | 21% | 2% |  |  |  | 
9 | CO/N=C(/C(=O)OC)c1cccc(C)c1CO/N=C(\C)c1c(Cl)cc(Cl)cc1OC(F)(F)F [compound 427] | 60% | 47% | 100% | 90% |  |  |  | 
10 | CO/N=C(/C(=O)OC)c1cccc(C)c1CO/N=C(\C)c1cc(C)cc(C)c1 [compound 94] | 35% | 2% | 22% | 5% |  |  |  | 
11 | CO/N=C(/C(=O)OC)c1cccc(C)c1CO/N=C(\C)c1cc(Cl)cc(Cl)c1 [Ex. 3, Methyl (2E)-2-[2-[[(E)-1-(3,5-dichlorophenyl)ethylideneamino]oxymethyl]-3-methyl-phenyl]-2-methoxyimino-acetate] | 40% | 6% | 30% | 3% |  |  | 1% | 2%
12 | CNC(=O)/C(=N/OC)c1cccc(C)c1CO/N=C(\C)c1ccccc1OC(F)(F)F [compound 184] | 16% | 1% | 42% | 4% |  |  |  | 
13 | CNC(=O)/C(=N/OC)c1cccc(C)c1CO/N=C(\C)c1ccc(Cl)c(C(F)(F)F)c1 [Ex. 60] | 53% | 2% | 23% | 1% |  |  | 0% | 0%
14 | CO/C=C(/C(=O)OC)c1cccc(C)c1CO/N=C(\C)c1cc(F)c(F)cc1CC(F)(F)F [compound 405] | 70% | 27% | 97% | 27% |  |  |  | 
15 | CNC(=O)/C(=N/OC)c1cccc(C)c1CO/N=C(\C)c1ccc(OC)cc1OC(F)(F)F [compound 337] | 13% | 1% | 9% | 0% |  |  |  | 
16 | CO/N=C(/C(=O)OC)c1cccc(C)c1CO/N=C(\C)c1ccc(C(F)(F)F)cc1 [Ex. 37] | 40% | 2% | 40% | 3% |  |  | 0% | 0%
17 | CO/C=C(/C(=O)OC)c1ccccc1CO/N=C(\C)c1ccccc1C(F)(F)F [reference compound] |  |  |  |  |  |  | 9% | 11%
18 | CNC(=O)/C(=N/OC)c1cccc(C)c1CO/N=C(\C)c1cccc(F)c1 [compound 85] | 0% | 0% | 1% | 0% |  |  |  | 
19 | CNC(=O)/C(=N/OC)c1ccccc1CO/N=C(\C)c1cccc(C(F)F)c1 [reference compound] |  |  |  |  |  |  | 35% | 16%
20 | CNC(=O)/C(=N/OC)c1cccc(C)c1CO/N=C(\C)c1cccc(F)c1C(F)(F)F [compound 326] | 30% | 1% | 25% | 0% |  |  |  | 
21 | CO/C=C(/C(=O)OC)c1cccc(C)c1CO/N=C(\C)c1ccc(-c2ccccc2)cc1OC(F)(F)F [compound 433] | 80% | 57% | 83% | 67% |  |  |  | 
22 | CO/N=C(/C(=O)OC)c1cccc(C)c1CO/N=C(\C)c1cccc(C(F)F)c1 [compound 19] | 87% | 1% | 87% | 0% |  |  |  | 
23 | CNC(=O)/C(=N/OC)c1cccc(C)c1CO/N=C(\C)c1c(F)cc(F)cc1F [compound 170] | 4% | 0% | 9% | 0% |  |  |  | 
24 | CNC(=O)/C(=N/OC)c1cccc(C)c1CO/N=C(\C)c1ccc(Cc2ccccc2)cc1OC(F)(F)F [compound 419] | 60% | 12% | 40% | 18% |  |  |  | 
25 | CO/N=C(/C(=O)OC)c1cccc(C)c1CO/N=C(\C)c1cc(Cl)cc(C(F)(F)F)c1 [compound 33] | 60% | 75% | 50% | 33% |  |  |  | 
26 | CCc1cc(/C(C)=N/OCc2c(C)cccc2/C(=N\OC)C(=O)OC)cc(C(F)(F)F)c1 [compound 146] | 77% | 48% | 73% | 12% |  |  |  | 
27 | CNC(=O)/C(=N/OC)c1cccc(C)c1CO/N=C(\C)c1ccc(Oc2ccc(Cl)cc2)cc1C(F)(F)F [compound 336] | 50% | 17% | 63% | 20% |  |  |  | 
28 | CO/C=C(/C(=O)OC)c1cccc(C)c1CO/N=C(\C)c1ccc(F)c(F)c1OC(F)(F)F [compound 450] | 4% | 1% | 3% | 1% |  |  |  | 
29 | CNC(=O)/C(=N/OC)c1cccc(C)c1CO/N=C(\CC(F)(F)F)c1ccccc1C [compound 393] | 93% | 42% | 93% | 55% |  |  |  | 
